Earlier results as cited in patent publication EP1526849B1 (A. MENARINI INDUSTRIE FARMACEUTICHE RIUNITE S.R.L., priority 2002, dated 2004).

Conditions: gel with benzofenone-3 1%; 8 hours solar light; JP60155111 example 1

CC(C(=O)O)c1cccc(C(=O)c2ccccc2)c1 (stereo not shown) [ketoprofen]
percentage of ketoprofen not broken down: 90%
